Experimental data taken from patent publication US9919998B2, “Antibacterial agents: Nα-aroyl-N-aryl-phenylalaninamides” (priority 2014, dated 2018).
Converted amounts (≈) assume the structure as drawn.

Key:
Type in all cases: cell-based
[1] = test system: Mycobacterium tuberculosis H37Rv; test: Microplate Alamar Blue assay (MABA) MIC, M. tuberculosis; conditions: read-out: MIC Mycobacterium tuberculosis H37Rv
From the text: (§1) Minimal inhibitory concentrations (MICs) in Mycobacterium tuberculosis H37Rv and Mycobacterium avium ATCC 25291 were quantified using microplate Alamar Blue assays as described (MABA; [Collins, L. & Franzblau, S. (1997) Microplate Alamar Blue assay versus BACTEC 460 system for high-throughput screening of compounds against Mycobacterium tuberculosis and Mycobacterium avium. Antimicrob. Agents Chemother. 41, 1004-1009]).

[2] = test system: Vero E6 ATCC CRL1586 cells; test: Mammalian-cell cytotoxicity, minimal cytotoxic concentration (CellTiter96)
Description: Minimal cytotoxic concentrations (MCCs) against mammalian cells in culture were determined using Vero E6 ATCC CRL1586 cells and the CellTiter96 assay kit (Promega, Inc.). […]

[3] = test system: Mycobacterium avium ATCC 25291; test: Microplate Alamar Blue assay (MABA) MIC, M. avium; conditions: ATCC25291, M. avium ATCC 25291
From the text: as §1

[4] = test system: Mycobacterium smegmatis ATCC 19420; test: Broth microdilution MIC, M. smegmatis; conditions: Mycolicibacterium smegmatis, ATCC19420, M. smegmatis ATCC 19420; read-out: MIC Mycobacterium smegmatis ATCC 19420
From the text: MICs in Mycobacterium smegmatis ATCC 19420 and Mycobacterium smegmatis ATCC 19420 derivatives were quantified using broth microdilution assays as described [Clinical and Laboratory Standards Institute (CLSI/NCCLS) (2009) Methods for Dilution Antimicrobial Susceptibility Tests for Bacteria That Grow Aerobically; Approved Standard, Eighth Edition. CLIS Document M07-A8 (CLIS, Wayne Pa.)].

SMILES | MIC [1] | MCC mammalian cells Vero E6 ATCC CRL1586 [2] | MIC [3] | MIC [4]
Cc1ccc(Cl)cc1NC(=O)C(Cc1ccccc1)NC(=O)c1cccc2[nH]ccc12 (stereo not shown) [IX-53, N-(1-((5-chloro-2-methylphenyl)amino)-1-oxo-3-phenylpropan-2-yl)-1H-indole-4-carboxamide] | 3.12 µg/mL (≈ 7.24 µM) | 34 µg/mL | 3.12 µg/mL (≈ 7.24 µM) | 0.39 µg/mL (≈ 0.903 µM)
Cc1ccccc1NC(=O)C(Cc1ccc(O)cc1)NC(=O)c1ccccc1F (stereo not shown) [IX-54, 2-fluoro-N-(3-(4-hydroxyphenyl)-1-oxo-1-(o-tolylamino)propan-2-yl)benzamide] | 25 µg/mL (≈ 63.7 µM) | >100 µg/mL | 50 µg/mL (≈ 127 µM) | 1.56 µg/mL (≈ 3.98 µM)
COc1ccccc1NC(=O)C(Cc1ccccc1)NC(=O)c1ccccc1F (stereo not shown) [IX-56, 2-fluoro-N-(1-((2-methoxyphenyl)amino)-1-oxo-3-phenylpropan-2-yl)benzamide] | 3.12 µg/mL (≈ 7.96 µM) | 97 µg/mL | 6.25 µg/mL (≈ 15.9 µM) | 0.39 µg/mL (≈ 0.994 µM)
O=C(NC(Cc1ccccc1)C(=O)Nc1cccc2cnccc12)c1ccccc1F (stereo not shown) [IX-57, 2-fluoro-N-(1-(isoquinolin-5-ylamino)-1-oxo-3-phenylpropan-2-yl)benzamide] | 6.25 µg/mL (≈ 15.1 µM) | 79 µg/mL | 12.5 µg/mL (≈ 30.2 µM) | 0.39 µg/mL (≈ 0.943 µM)
O=C(NC(Cc1ccccc1)C(=O)Nc1cccc2c1OCCO2)c1ccccc1F (stereo not shown) [IX-59, N-(1-((2,3-dihydrobenzo[b][1,4]dioxin-5-yl)amino)-1-oxo-3-phenylpropan-2-yl)-2-fluorobenzamide] | 3.12 µg/mL (≈ 7.43 µM) | 49 µg/mL | 6.25 µg/mL (≈ 14.9 µM) | 0.095 µg/mL (≈ 0.226 µM)
Cc1ccccc1NC(=O)C(Cc1ccc(O)cc1)NC(=O)c1ccccc1Cl (stereo not shown) [IX-60, 2-chloro-N-(3-(4-hydroxyphenyl)-1-oxo-1-(o-tolylamino)propan-2-yl)benzamide] | 50 µg/mL (≈ 122 µM) | >100 µg/mL | > 50 µg/mL | 3.12 µg/mL (≈ 7.64 µM)
Cc1ccc(Cl)cc1NC(=O)C(Cc1ccccc1)NC(=O)c1ccccc1Cl (stereo not shown) [IX-61, 2-chloro-N-(1-((5-chloro-2-methylphenyl)amino)-1-oxo-3-phenylpropan-2-yl)benzamide] | > 50 µg/mL | 9.2 µg/mL | > 50 µg/mL | 0.39 µg/mL (≈ 0.913 µM)
COc1ccccc1NC(=O)C(Cc1ccccc1)NC(=O)c1ccccc1Cl (stereo not shown) [IX-62, 2-chloro-N-(1-((2-methoxyphenyl)amino)-1-oxo-3-phenylpropan-2-yl)benzamide] | 6.25 µg/mL (≈ 15.3 µM) | 12 µg/mL | 6.25 µg/mL (≈ 15.3 µM) | 0.39 µg/mL (≈ 0.954 µM)
O=C(NC(Cc1ccccc1)C(=O)Nc1cccc2cnccc12)c1ccccc1Cl (stereo not shown) [IX-63, 2-chloro-N-(1-(isoquinolin-5-ylamino)-1-oxo-3-phenylpropan-2-yl)benzamide] | 6.25 µg/mL (≈ 14.5 µM) | >100 µg/mL | 12.5 µg/mL (≈ 29.1 µM) | 0.78 µg/mL (≈ 1.81 µM)
O=C(NC(Cc1ccccc1)C(=O)Nc1cccc2ncccc12)c1ccccc1Cl (stereo not shown) [IX-64, 2-chloro-N-(1-oxo-3-phenyl-1-(quinolin-5-ylamino)propan-2-yl)benzamide] | 12.5 µg/mL (≈ 29.1 µM) | 78 µg/mL | 50 µg/mL (≈ 116 µM) | 0.78 µg/mL (≈ 1.81 µM)
O=C(NC(Cc1ccccc1)C(=O)Nc1cccc2c1OCCO2)c1ccccc1Cl (stereo not shown) [IX-65, 2-chloro-N-(1-((2,3-dihydrobenzo[b][1,4]dioxin-5-yl)amino)-1-oxo-3-phenylpropan-2-yl)benzamide] | 3.12 µg/mL (≈ 7.15 µM) | 18 µg/mL | 6.25 µg/mL (≈ 14.3 µM) | 0.78 µg/mL (≈ 1.79 µM)
Cc1ccc(Cl)cc1NC(=O)C(Cc1ccccc1)NC(=O)c1ccccc1C (stereo not shown) [IX-67, N-(1-((5-chloro-2-methylphenyl)amino)-1-oxo-3-phenylpropan-2-yl)-2-methylbenzamide] | 1.56 µg/mL (≈ 3.83 µM) | 8 µg/mL | 1.56 µg/mL (≈ 3.83 µM) | 0.19 µg/mL (≈ 0.467 µM)
COc1ccccc1NC(=O)C(Cc1ccccc1)NC(=O)c1ccccc1C (stereo not shown) [IX-68, N-(1-((2-methoxyphenyl)amino)-1-oxo-3-phenylpropan-2-yl)-2-methylbenzamide] | 3.12 µg/mL (≈ 8.04 µM) | 17 µg/mL | 6.25 µg/mL (≈ 16.1 µM) | 0.39 µg/mL (≈ 1 µM)
Cc1ccccc1C(=O)NC(Cc1ccccc1)C(=O)Nc1cccc2cnccc12 (stereo not shown) [IX-69, N-(1-(isoquinolin-5-ylamino)-1-oxo-3-phenylpropan-2-yl)-2-methylbenzamide] | 3.12 µg/mL (≈ 7.63 µM) | >100 µg/mL | 3.12 µg/mL (≈ 7.63 µM) | 0.39 µg/mL (≈ 0.952 µM)
Cc1ccccc1C(=O)NC(Cc1ccccc1)C(=O)Nc1cccc2ncccc12 (stereo not shown) [IX-70, 2-methyl-N-(1-oxo-3-phenyl-1-(quinolin-5-ylamino)propan-2-yl)benzamide] | 12.5 µg/mL (≈ 30.5 µM) | 63 µg/mL | 25 µg/mL (≈ 61.1 µM) | 0.39 µg/mL (≈ 0.952 µM)
Cc1ccccc1C(=O)NC(Cc1ccccc1)C(=O)Nc1cccc2c1OCCO2 (stereo not shown) [IX-71, N-(1-((2,3-dihydrobenzo[b][1,4]dioxin-5-yl)amino)-1-oxo-3-phenylpropan-2-yl)-2-methylbenzamide] | 1.56 µg/mL (≈ 3.75 µM) | 10 µg/mL | 3.12 µg/mL (≈ 7.5 µM) | 0.39 µg/mL (≈ 0.936 µM)
O=C(NC(Cc1ccccc1)C(=O)Nc1cccc2c1OCO2)c1ccccc1 (stereo not shown) [IX-72, N-(1-(benzo[d][1,3]dioxol-4-ylamino)-1-oxo-3-phenylpropan-2-yl)benzamide] | 6.25 µg/mL (≈ 16.1 µM) | 33 µg/mL | 3.12 µg/mL (≈ 8.05 µM) | 0.095 µg/mL (≈ 0.245 µM)
O=C(NC(Cc1ccccc1)C(=O)Nc1cc(F)cc2ncccc12)c1ccccc1 (stereo not shown) [IX-75, N-(1-((7-fluoroquinolin-5-yl)amino)-1-oxo-3-phenylpropan-2-yl)benzamide] | 0.78 µg/mL (≈ 1.89 µM) | >100 µg/mL | 0.78 µg/mL (≈ 1.89 µM) | 0.39 µg/mL (≈ 0.943 µM)
Cc1ccc(F)cc1NC(=O)C(Cc1ccccc1)NC(=O)c1cccs1 (stereo not shown) [IX-79, N-(1-((5-fluoro-2-methylphenyl)amino)-1-oxo-3-phenylpropan-2-yl)thiophene-2-carboxamide] | 1.56 µg/mL (≈ 4.08 µM) | 23 µg/mL | 1.56 µg/mL (≈ 4.08 µM) | 0.19 µg/mL (≈ 0.497 µM)
Cc1ccc(F)cc1NC(=O)C(Cc1ccccc1)NC(=O)c1cccc2[nH]ccc12 (stereo not shown) [IX-80, N-(1-((5-fluoro-2-methylphenyl)amino)-1-oxo-3-phenylpropan-2-yl)-1H-indole-4-carboxamide] | 1.56 µg/mL (≈ 3.75 µM) | 33 µg/mL | 3.12 µg/mL (≈ 7.52 µM) | 0.195 µg/mL (≈ 0.469 µM)
Cc1ccc(F)cc1NC(=O)C(Cc1ccccc1)NC(=O)c1ccccc1F (stereo not shown) [IX-81, 2-fluoro-N-(1-((5-fluoro-2-methylphenyl)amino)-1-oxo-3-phenylpropan-2-yl)benzamide] | 1.56 µg/mL (≈ 3.96 µM) | 38 µg/mL | 3.12 µg/mL (≈ 7.92 µM) | 0.195 µg/mL (≈ 0.494 µM)
Cc1ccc(F)cc1NC(=O)C(Cc1ccccc1)NC(=O)c1ccccc1Cl (stereo not shown) [IX-82, 2-chloro-N-(1-((5-fluoro-2-methylphenyl)amino)-1-oxo-3-phenylpropan-2-yl)benzamide] | 1.56 µg/mL (≈ 3.8 µM) | 20 µg/mL | 3.12 µg/mL (≈ 7.61 µM) | 0.39 µg/mL (≈ 0.949 µM)
